We go through 39 compounds from US20210251991A1, “SUBSTITUTED 2,2'-BIPYRIMIDINYL COMPOUNDS, ANALOGUES THEREOF, AND METHODS USING SAME” (priority 2018, published 2021).

One experiment relates to HBsAg in HepG2.2.15 cells. As to the kind of experiment: HBsAg assay: inhibition of HBsAg in HepG2.2.15 cells (chemiluminescence immunoassay of supernatant). The format is cell-based, hepatitis B virus. The note with it: Hepatitis B virus, HepG2.2.15, 144 h, read-out: sAg EC50, HepG2.2.15 cells, supernatant collected at day 6 after exposure, HBsAg CLIA. Here is the method: Inhibition of HBsAg was determined in HepG2.2.15 cells. Cells were maintained in culture medium containing 10% fetal calf serum, […], Glutamine, penicillin/streptomycin. Cells were seeded in 96-well collagen-coated plate at a density of 30,000 cells/well. Serially diluted compounds were added to cells next day at the final DMSO concentration of 0.5%. Cells were incubated with compounds for 2-3 days, after which medium was removed. Fresh medium containing compounds was added to cells for additional 3-4 days. At day 6 after exposure of compounds, supernatant was collected, the HBsAg immunoassay (microplate-based chemiluminescence immunoassay kits, CLIA, Autobio Diagnosics Co., Zhengzhou, China, Catalog #CL0310-2) was used to determine the level of HBsAg according to manufactory instruction. Dose-response curves were generated and the EC50 value (effective concentrations that achieved 50% inhibitory effect) were determined using XLfit software. In addition, cells were seeded at a density of 5,000 cells/well for determination of cell viability in the presence and absence of compounds by using CellTiter-Glo reagent (Promega).
For `Fc1cc(F)c2c(c1)CN(c1cnc(-c3ncccn3)nc1)CC2` [Example 1, 2-([2,2′-Bipyrimidin]-5-yl)-5,7-difluoro-1,2,3,4-tetrahydroisoquinoline], the EC50 is 1900 nM. Take `Fc1cc(F)c2c(c1)CN(c1ccnc(-c3ncccn3)n1)CC2` [Example 2, 2-([2,2′-Bipyrimidin]-4-yl)-5,7-difluoro-1,2,3,4-tetrahydroisoquinoline]: the EC50 turned out to be 1600 nM. `Fc1ccc2c(c1F)CCN(c1cnc(-c3ncccn3)nc1)C2` [Example 3, 2-([2,2′-Bipyrimidin]-5-yl)-5,6-difluoro-1,2,3,4-tetrahydroisoquinoline]: the EC50 was 3400 nM.

For `Fc1ccc2c(c1F)CCN(c1ccnc(-c3ncccn3)n1)C2` [Example 4, 2-([2,2′-Bipyrimidin]-4-yl)-5,6-difluoro-1,2,3,4-tetrahydroisoquinoline], the EC50 was 900 nM. For the compound `CC1CN(c2cnc(-c3ncccn3)nc2)Cc2ccccc21` (stereo not drawn) [Example 5, 2-([2,2′-Bipyrimidin]-5-yl)-4-methyl-1,2,3,4-tetrahydroisoquinoline], the EC50 was found to be 34000 nM. Regarding `CC1c2ccccc2CCN1c1cnc(-c2ncccn2)nc1` (stereo not drawn) [Example 6, 1-Methyl-2-(2-pyrimidin-2-ylpyrimidin-5-yl)-3,4-dihydro-1H-isoquinoline], the EC50 is 1400 nM. On to `CC1c2ccccc2CCN1c1ccnc(-c2ncccn2)n1` (stereo not drawn) [Example 7, 2-([2,2′-Bipyrimidin]-4-yl)-1-methyl-1,2,3,4-tetrahydroisoquinoline], for which the EC50 is 1900 nM.

Consider `CCC1Cc2ccccc2CN1c1ccnc(-c2ncccn2)n1` (stereo not drawn) [Example 8, 2-([2,2′-Bipyrimidin]-4-yl)-3-ethyl-1,2,3,4-tetrahydroisoquinoline], for which the EC50 was 2300 nM. With `c1cnc(-c2nccc(N3CCc4ccccc4C3)n2)nc1` [Example 9, 2-([2,2′-Bipyrimidin]-4-yl)-1,2,3,4-tetrahydroisoquinoline], the EC50 turned out to be 8500 nM. As to `CCC1c2ccccc2CCN1c1cnc(-c2ncccn2)nc1` (stereo not drawn) [Example 10, 2-([2,2′-Bipyrimidin]-5-yl)-1-ethyl-1,2,3,4-tetrahydroisoquinoline], the EC50 stood at 250 nM.

On to `CCC1c2ccccc2CCN1c1ccnc(-c2ncccn2)n1` (stereo not drawn) [Example 13, 2-([2,2′-Bipyrimidin]-4-yl)-1-ethyl-1,2,3,4-tetrahydroisoquinoline], for which the EC50 was 500 nM. As to `FC(F)(F)c1cccc2c1CN(c1cnc(-c3ncccn3)nc1)C2` [Example 14, 2-([2,2′-Bipyrimidin]-5-yl)-4-(trifluoromethyl)isoindoline], the EC50 amounted to 25000 nM. Consider `CC1CN(c2ccnc(-c3ncccn3)n2)Cc2ccccc21` (stereo not drawn) [Example 15, 2-([2,2′-Bipyrimidin]-4-yl)-4-methyl-1,2,3,4-tetrahydroisoquinoline], for which the EC50 is 1100 nM. In the case of `CC1CN(c2cnc(-c3ncccn3)nc2)C(=O)c2ccccc21` (stereo not drawn) [Example 16, 2-([2,2′-Bipyrimidin]-5 yl)-4-methyl-3,4-dihydroisoquinolin-1(2H)-one], the EC50 worked out at 9100 nM. With `Fc1cc2c(cc1F)CN(c1ccnc(-c3ncccn3)n1)CC2` [Example 17, 2-([2,2′-Bipyrimidin]-4-yl)-6,7-difluoro-1,2,3,4-tetrahydroisoquinoline], the EC50 amounted to 610 nM. On the same count and under the same terms, the result for `COc1cc2c(cc1OC)C1(CCC1)N(c1cnc(-c3ncccn3)nc1)CC2` [Example 18, 2′-([2,2′-Bipyrimidin]-5-yl)-6′,7′-dimethoxy-3′,4′-dihydro-2′H-spiro[cyclobutane-1,1′-isoquinoline]] reads 50000 nM; that for `CCC1c2ccccc2CN1c1cnc(-c2ncccn2)nc1` (stereo not drawn) [Example 19, 2-([2,2′-Bipyrimidin]-5-yl)-1-ethylisoindoline], 800 nM; that for `c1cnc(-c2ncc(N3CC4CCC3c3ccccc34)cn2)nc1` (stereo not drawn) [Example 20, 10-([2,2′-Bipyrimidin]-5-yl)-1,2,3,4-tetrahydro-1,4-(epiminomethano) naphthalene], 32000 nM. Consider `c1cnc(-c2ncc(N3CC4CC3c3ccccc34)cn2)nc1` (stereo not drawn) [Example 21, 2-([2,2′-Bipyrimidin]-5-yl)-1,2,3,4-tetrahydro-1,4-methanoisoquinoline], for which the EC50 was determined as 27000 nM.

On to `c1cnc(-c2ncc(N3C4CCC3c3ccccc34)cn2)nc1` [Example 22, 9-([2,2′-Bipyrimidin]-5-yl)-1,2,3,4-tetrahydro-1,4-epiminonaphthalene], for which the EC50 came out at 21000 nM.

On to `CCCC1c2ccccc2CCN1c1ccnc(-c2ncccn2)n1` (stereo not drawn) [Example 23, 2-([2,2′-Bipyrimidin]-4-yl)-1-propyl-1,2,3,4-tetrahydroisoquinoline], for which the EC50 is 1000 nM.

As to `CC1c2ccc(F)c(F)c2CCN1c1cnc(-c2ncccn2)nc1` (stereo not drawn) [Example 24, 2-([2,2′-Bipyrimidin]-5-yl)-5,6-difluoro-1-methyl-1,2,3,4-tetrahydroisoquinoline], the EC50 amounted to 340 nM. Still for that read-out and setting: the figure for `CCC1c2cc(F)c(F)cc2CCN1c1cnc(-c2ncccn2)nc1` (stereo not drawn) [Example 25, 2-([2,2′-Bipyrimidin]-5-yl)-1-ethyl-6,7-difluoro-1,2,3,4-tetrahydroisoquinoline] is 85 nM; for `COC(=O)CC1c2cc(OC)c(OC)cc2CCN1c1cnc(-c2ncccn2)nc1` (stereo not drawn) [Example 26, Methyl 2-(2-([2,2′-bipyrimidin]-5-yl)-6,7-dimethoxy-1,2,3,4-tetrahydroisoquinolin-1-yl) acetate] it is 1200 nM; for `COc1cc2c(cc1OC)C(CC(=O)O)N(c1cnc(-c3ncccn3)nc1)CC2` (stereo not drawn) [Example 27, 2-(2-([2,2′-Bipyrimidin]-5-yl)-6,7-dimethoxy-1,2,3,4-tetrahydroisoquinolin-1-yl) acetic Acid] it is 28000 nM. Turning to `CCC1c2ccc(OC)c(OC)c2CCN1c1cnc(-c2ncccn2)nc1` (stereo not drawn) [Example 28, 2-([2,2′-Bipyrimidin]-5-yl)-1-ethyl-5,6-dimethoxy-1,2,3,4 Tetrahydroisoquinoline], the EC50 amounted to 180 nM. As for `CCC1c2cc(OC)c(F)c(F)c2CCN1c1cnc(-c2ncccn2)nc1` (stereo not drawn) [Example 29, 1-Ethyl-5,6-difluoro-7-methoxy-2-(2-pyrimidin-2-ylpyrimidin-5-yl)-3,4-dihydro-1H-isoquinoline], the EC50 was 170 nM. For `CCC1c2ccc(F)c(F)c2CCN1c1cnc(-c2ncccn2)nc1` (stereo not drawn) [Example 32, 1-Ethyl-5,6-difluoro-2-(2-pyrimidin-2-ylpyrimidin-5-yl)-3,4-dihydro-1H-isoquinoline], the EC50 came out at 2000 nM. Regarding `CCC1c2c(OC)ccc(F)c2CCN1c1cnc(-c2ncccn2)nc1` (stereo not drawn) [Example 35, 1-Ethyl-5-fluoro-8-methoxy-2-(2-pyrimidin-2-ylpyrimidin-5-yl)-3,4-dihydro-1H-isoquinoline], the EC50 worked out at 620 nM. On to `CC1c2ccc(F)c(F)c2CCN1c1ccnc(-c2ncccn2)n1` (stereo not drawn) [Example 36, 2-([2,2′-Bipyrimidin]-4-yl)-5,6-difluoro-1-methyl-1,2,3,4-tetrahydroisoquinoline], for which the EC50 came out at 480 nM. Same read-out and setting: the figure for `CCC1c2ccc(F)c(F)c2CCN1c1ccnc(-c2ncccn2)n1` (stereo not drawn) [Example 39, 1-Ethyl-5,6-difluoro-2-(2-pyrimidin-2-ylpyrimidin-4-yl)-3,4-dihydro-1H-isoquinoline] is 590 nM.

The experiment is the same for the next values; noted with them: read-out: sAg EC50; HepG2.2.15 cells, supernatant collected at day 6 after exposure, HBsAg CLIA.
With `CCC1c2cc(F)c(F)cc2CN1c1cnc(C(=O)O)nc1` (single isomer, unassigned) [Example 116, 5-(1-Ethyl-5,6-difluoroisoindolin-2-yl)pyrimidine-2-carboxylic Acid], the EC50 was found to be 3000 nM. For `CCC1c2cc(F)c(F)cc2CN1c1cnc(C(=O)O)nc1` (single isomer, unassigned) [Example 117, 5-(1-Ethyl-5,6-difluoroisoindolin-2-yl)pyrimidine-2-carboxylic Acid], the EC50 came to 15000 nM. Regarding `CCC1c2cc(F)c(OC)cc2CCN1c1ccnc(-c2ncccn2)n1` (single isomer, unassigned) [Example 128, 2-(2,2′-Bipyrimidin-4-yl)-1-ethyl-7-fluoro-6-methoxy-1,2,3,4-tetrahydroisoquinoline], the EC50 was found to be 82 nM. `CCC1c2cc(F)c(OC)cc2CCN1c1ccnc(-c2ncccn2)n1` (single isomer, unassigned) [Example 129, 2-(2,2′-Bipyrimidin-4-yl)-1-ethyl-7-fluoro-6-methoxy-1,2,3,4-tetrahydroisoquinoline]: the EC50 was determined as 15 nM.

Turning to `CCCC1c2ccc(F)c(F)c2CCN1c1ccnc(-c2ncccn2)n1` (single isomer, unassigned) [Example 130, 2-([2,2′-Bipyrimidin]-4-yl)-5,6-difluoro-1-propyl-1,2,3,4-tetrahydroisoquinoline], the EC50 came to 97 nM. On the same count and under the same terms, the result for `CCCC1c2ccc(F)c(F)c2CCN1c1ccnc(-c2ncccn2)n1` (single isomer, unassigned) [Example 131, 2-([2,2′-Bipyrimidin]-4-yl)-5,6-difluoro-1-propyl-1,2,3,4-tetrahydroisoquinoline] reads 2000 nM; that for `CCC1c2cc(F)c(OC)cc2CCN1c1cnc(-c2ncccn2)nc1` (single isomer, unassigned) [Example 133, 2-(2,2′-Bipyrimidin-5-yl)-1-ethyl-7-fluoro-6-methoxy-1,2,3,4-tetrahydroisoquinoline], 3 nM. As to `CCC1c2cc(F)c(OC)cc2CCN1c1cnc(-c2ncccn2)nc1` (single isomer, unassigned) [Example 134, 2-(2,2′-Bipyrimidin-5-yl)-1-ethyl-7-fluoro-6-methoxy-1,2,3,4-tetrahydroisoquinoline], the EC50 came out at 54 nM.

By EC50 is commonly meant the midpoint of the concentration-response curve.
